Source: publication PMC4946969 (ACS chemical biology, 2016)

Tests used:
[1] = target: T1, S. epidermidis AgrC-I (Staphylococcus epidermidis, UniProt Q5HMY3); type: cell-based; details: for IC50: AgrC-I antagonism dose response, peptide alone, Group-I reporter strain, 24 h
[2] = target: T1, S. epidermidis AgrC-I; type: cell-based; details: AgrC-I activation dose response in the presence of 50 nM S. epidermidis AIP-II
[3] = tested on: S. epidermidis AgrC-II; experiment: AgrC-II modulation, Group-II GFP reporter strain AH3567; type: cell-based, Staphylococcus epidermidis
[4] = tested on: S. epidermidis AgrC-III; experiment: AgrC-III modulation, Group-III GFP reporter strain AH3409; type: cell-based, Staphylococcus epidermidis; details: initial single-concentration screen, 10 μM (Figures S-2, 2A)

D-S-V-(C-A-S-A-F) [AIP-I Y7A] was tested, and the IC50 [1] was “Inactive ^c”, the EC50 [2] was “Inactive ^c” and the “AgrC-II (Group-II) inhibition, single concentration” value ([3]; initial single-concentration screen, 10 μM (Figures S-1, 2A)) was ~ 50%. For the same substance, the “AgrC-III (Group-III) inhibition, single concentration” value [4] was ~ 50%.

With D-S-V-(C-A-S-DY-F) [AIP-I D-Y7] the IC50 [1] was “Inactive ^c” and the EC50 [2] was “Inactive ^c”.

D-S-V-(C-A-S-Y-A) [AIP-I F8A] was tested, and the IC50 [1] was “Inactive ^c” and the EC50 [2] was “Inactive ^c”.

For D-S-V-(C-DA-S-Y-F) [AIP-I D-A5], the IC50 [1] was “Inactive ^c” and the EC50 [2] was “Inactive ^c”.

D-S-V-(C-S-S-Y-F) [A5S-2] was tested, and the “AgrC-I dose response behaviour” value ([1]; two isolated AIP-I A5S products) was “very weak inhibition at low concentrations yet activation at higher concentrations”.

With D-S-V-(DC-A-S-Y-F) [AIP-I D-C4] the IC50 [1] was “Inactive ^c” and the EC50 [2] was “Inactive ^c”.

In the case of “I-N-(C-A-F-L-L) [S. aureus AIP-III D4A, reference compound]”, the IC50 [1] is reported as “Inactive ^c”, the EC50 [2] is reported as “Inactive ^c” and the “Activity toward Group-II (AgrC-II) at lower concentration” value ([3]; 100 nM (lower-concentration screen 1 μM or 100 nM; Figure 2A)) is reported as “inhibiting exclusively Group-II”.

“I-N-(C-D-F-L-L) [S. aureus AIP-III, reference compound]” was tested, and the IC50 [1] was “Inactive ^c” and the EC50 [2] was “Inactive ^c”.

With “Y-S-T-(C-D-F-I-M) [S. aureus AIP-I, reference compound]” the IC50 [1] was “Inactive ^c” and the EC50 [2] was “Inactive ^c”.
